The values that follow come from the RepoRT retention time repository.

The series can be described thus: RP, Restek Raptor Biphenyl, 100 × 2.1 mm, 2.7 µm, 50 °C, 0.4 mL/min, estimated dead time 0.55 min; A: water + 0.1% formic acid, pH 3; B: methanol + 0.1% formic acid, pH 3; gradient (min/%B) 0/5 1.12/5 6.41/99.5 10.01/99.5. The conditions noted are these: stereoisomer not certain.

Where a name gives a salt, the structure may show the parent alone.

In the case of `CCCCCCCCCCCCCC(O)CC(=O)OC(CC(=O)[O-])C[N+](C)(C)C` [[(3R)-3-Hydroxyhexadecanoyl]-L-carnitine], the LC retention time was 5.77 min.
As for `CCCCCC=CCC=CCC=CCC=CCC=CCCC(=O)O` [all-cis-4,7,10,13,16-Docosapentaenoic acid], the LC retention time was 6.7 min.
Under `CCC=CCC=CCC=CCC=CC/C=C\CCCC(=O)O` [cis-5,8,11,14,17-Eicosapentaenoic acid] stands 6.56 min; under `O=C(O)C=C(CC(=O)O)C(=O)O` [cis-Aconitic acid], 0.818 min; under `CCCCCCCCCC=CC(=O)OC(CC(=O)[O-])C[N+](C)(C)C` [trans-2-Dodecenoyl-L-carnitine], 5.46 min.
In the case of `CCCCCC/C=C/CCCCCCCCCC(=O)O` [trans-Vaccenic Acid], the LC retention time is 6.61 min.
Consider `CC(C)C(=O)C(=O)O` [α-Keto Isovaleric Acid Sodium Salt], for which the LC retention time was 1.26 min.
Consider `O=C(O)CCC(=O)C(=O)O` [α-Ketoglutaric acid], for which the LC retention time was 0.722 min.
For the compound `CCCCCC=CCC=CCC=CCCCCC(=O)O` [γ-Linolenic acid], the LC retention time is 6.54 min.
